# According to article PMC11173382, “In Vitro Investigations into the Potential Drug Interactions of Pseudoginsenoside DQ Mediated by Cytochrome P450 and Human Drug Transporters” (Molecules, 2024):
# What was measured:
# Type in all cases: in vitro ADME
# CYP2D6 = target: T1, CYP2D6 (Homo sapiens, UniProt P10635); assay: CYP450 inhibition assay in human liver microsomes, CYP2D6; conditions: HLM 0.1 mg/mL; probe dextromethorphan 10 µM; 20 min
# T1 construct: tissue Corning 452117; host or cells: human liver microsomes
# Protocol: To evaluate the reliability and reproducibility of the CYP450 inhibition assay, we measured the inhibitory effects of selected positive control inhibitors of each CYP450 enzyme in human liver microsomes (HLM, Table 1, Figure 2). The potency of inhibition was estimated by observing the alteration in concentration of metabolites of CYP450 substrates (Table 1).
# Reagents preparation. […] The stock solution of PDQ (10 mM) was prepared with methanol and further diluted to the range of 3 µM to 3 mM with methanol to ensure that the solvent of different PDQ samples contained the same amount (1%) of methanol.
# The stock solutions of the positive control inhibitors and the probe substrates of CYP450 enzymes were prepared in methanol.
# CYP450 inhibition assay. […] The assay was conducted in polypropylene 96-well plates (2.2 mL/well, Apricot Designs Inc., Covina, CA, USA).
# The total volume of the reaction is 200 μL. […] The substrates and analytes were analyzed by LC-MS/MS (API4000, Applied Biosystems, Singapore; HPLC, Shimadzu, Japan). […]
# Data analysis. […] The IC50 was determined by fitting the dependence of the relative remaining activity (y = Vi/V0) to the following three-parameter equation (Equation (1)). […]
# hMDR1(P-gp) = target: T2, hMDR1(P-gp) (Homo sapiens, UniProt P08183); assay: MDCK II-MDR1 drug transport assay (3H-digoxin); conditions: for Transport activity of P-gp (main text: percentage inhibition): negative control = 100%
# T2 construct: host or cells: MDCKII-MDR1
# From the text: Drug transporters mediate the cellular uptake and efflux of their substrates. Therefore, cell lines overexpressing a drug transporter can be utilized to investigate inhibitors of the transporter by assessing changes in substrate uptake. For each drug transporter, we selected a well-characterized inhibitor as the positive control. Radiolabeled substrates were used to indicate the decrease in transport efficiency when the drug transporters were inhibited by PDQ or the control inhibitors.
# The concentrations of the control drugs and the substrates were stated in the assay details. Working solutions of the control inhibitors, the radiolabeled substrates, and each dose of PDQ were prepared at 200 times (200×) more concentrated solutions with DMSO for further dilution.
# Transporter-overexpressed cell lines. Human organic anion transporter-overexpressed cell lines MDCKII-OAT1 and S2-OAT3, human organic anion transport polypeptide-overexpressed cell lines HEK293A-OATP1B1 and HEK293A-OATP1B3, human organic cation transporter 2-overexpressed cell line S2-OCT2, and human multi-drug resistance protein MDR1 (or P-gp)-overexpressed cell line MDCKII-MDR1 were gifts from Japan Fuji Biomedical Co., Ltd. (Fuji, Shizuoka Prefecture, Japan). Breast cancer resistance protein-overexpressed vesicles (sf9-BCRP vesicle) were purchased from GenoMembrane Co., Ltd. (Yokohama, Kanagawa, Japan).
# All reagents were pre-warmed to 37 °C. […] The plate was incubated for 20 min. […] Each sample was replicated three times (N = 3).
# In = [100 × (U − U0)/(Uc − U0)]%(3)
# The results were expressed as mean ± standard deviation (SD) and analyzed with GraphPad Prism 8.0 software (CA, USA). The IC50 of PDQ was curve-fitted with the FORECAST function.
# hOCT2 = target: T3, hOCT2 (Homo sapiens, UniProt O15244); assay: Substrates uptake assay, S2-OCT2 cells (14C-TEA); conditions: 14C-TEA 5 µM, 5 min
# T3 construct: host or cells: S2-OCT2
# T3 sequence (O15244 1-555): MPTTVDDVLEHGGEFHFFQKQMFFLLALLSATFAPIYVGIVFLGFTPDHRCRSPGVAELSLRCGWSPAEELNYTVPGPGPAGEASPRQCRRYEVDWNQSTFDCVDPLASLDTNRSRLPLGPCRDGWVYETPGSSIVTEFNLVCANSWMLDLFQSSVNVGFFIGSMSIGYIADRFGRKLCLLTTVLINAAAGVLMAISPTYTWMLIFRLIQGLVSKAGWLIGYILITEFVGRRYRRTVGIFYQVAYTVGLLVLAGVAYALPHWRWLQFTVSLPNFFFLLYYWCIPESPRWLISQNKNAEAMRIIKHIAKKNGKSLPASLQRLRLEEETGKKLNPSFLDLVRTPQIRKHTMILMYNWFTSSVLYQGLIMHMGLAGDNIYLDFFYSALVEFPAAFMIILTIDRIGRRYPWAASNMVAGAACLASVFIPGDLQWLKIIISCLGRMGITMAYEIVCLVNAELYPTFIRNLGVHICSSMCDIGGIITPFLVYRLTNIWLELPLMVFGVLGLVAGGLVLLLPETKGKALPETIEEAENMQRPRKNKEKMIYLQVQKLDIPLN
# T2 sequence (P08183 whole entry): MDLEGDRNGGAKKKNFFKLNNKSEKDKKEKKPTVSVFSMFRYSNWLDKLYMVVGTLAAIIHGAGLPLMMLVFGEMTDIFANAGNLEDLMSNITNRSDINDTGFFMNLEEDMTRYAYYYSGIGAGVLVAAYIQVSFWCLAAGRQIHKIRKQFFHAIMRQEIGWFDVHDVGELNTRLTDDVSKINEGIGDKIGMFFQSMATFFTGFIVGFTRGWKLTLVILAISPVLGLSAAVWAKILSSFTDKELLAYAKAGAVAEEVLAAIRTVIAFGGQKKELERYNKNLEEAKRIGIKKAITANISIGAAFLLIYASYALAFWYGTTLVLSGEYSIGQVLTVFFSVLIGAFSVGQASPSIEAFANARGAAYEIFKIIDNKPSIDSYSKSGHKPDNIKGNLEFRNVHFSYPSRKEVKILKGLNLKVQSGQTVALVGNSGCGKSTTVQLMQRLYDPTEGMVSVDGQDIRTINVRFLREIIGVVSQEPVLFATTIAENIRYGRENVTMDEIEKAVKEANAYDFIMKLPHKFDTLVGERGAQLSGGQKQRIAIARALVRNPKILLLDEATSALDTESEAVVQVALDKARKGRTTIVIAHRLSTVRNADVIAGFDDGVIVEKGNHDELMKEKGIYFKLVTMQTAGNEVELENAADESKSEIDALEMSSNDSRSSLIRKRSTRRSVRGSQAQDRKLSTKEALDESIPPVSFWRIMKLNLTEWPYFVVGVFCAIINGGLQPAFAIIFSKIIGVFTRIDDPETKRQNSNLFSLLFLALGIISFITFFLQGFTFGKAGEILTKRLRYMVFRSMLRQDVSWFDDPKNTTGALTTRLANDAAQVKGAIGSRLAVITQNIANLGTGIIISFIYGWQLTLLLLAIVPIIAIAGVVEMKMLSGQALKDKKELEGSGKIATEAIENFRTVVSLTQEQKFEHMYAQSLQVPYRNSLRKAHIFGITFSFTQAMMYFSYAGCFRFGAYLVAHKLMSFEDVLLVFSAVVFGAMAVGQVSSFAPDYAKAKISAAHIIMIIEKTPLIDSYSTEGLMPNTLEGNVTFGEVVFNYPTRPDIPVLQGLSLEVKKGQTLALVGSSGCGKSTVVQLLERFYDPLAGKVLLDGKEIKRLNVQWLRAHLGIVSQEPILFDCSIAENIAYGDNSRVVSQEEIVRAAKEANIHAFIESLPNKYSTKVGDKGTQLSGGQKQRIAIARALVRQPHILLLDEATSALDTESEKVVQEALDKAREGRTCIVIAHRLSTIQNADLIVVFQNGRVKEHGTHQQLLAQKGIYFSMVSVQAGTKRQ
# T1 sequence (P10635 whole entry): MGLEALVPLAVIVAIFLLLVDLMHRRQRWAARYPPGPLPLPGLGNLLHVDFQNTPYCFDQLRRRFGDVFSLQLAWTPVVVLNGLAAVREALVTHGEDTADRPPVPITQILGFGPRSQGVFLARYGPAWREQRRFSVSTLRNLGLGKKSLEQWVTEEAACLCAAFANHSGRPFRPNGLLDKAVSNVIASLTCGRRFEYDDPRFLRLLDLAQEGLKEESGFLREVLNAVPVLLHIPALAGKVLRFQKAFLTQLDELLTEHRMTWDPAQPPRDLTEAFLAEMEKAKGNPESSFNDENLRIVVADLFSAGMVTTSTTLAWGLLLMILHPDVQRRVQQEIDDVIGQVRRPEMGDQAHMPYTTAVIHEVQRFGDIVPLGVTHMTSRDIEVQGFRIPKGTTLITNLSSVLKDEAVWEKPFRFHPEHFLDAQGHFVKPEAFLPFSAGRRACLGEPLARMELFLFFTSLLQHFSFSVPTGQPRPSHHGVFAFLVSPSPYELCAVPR
smiles,measurement,setting,value
"CC(C)(O)[C@@H]1CC[C@@](C)([C@H]2CC[C@]3(C)[C@@H]2[C@H](O)C[C@@H]2[C@@]4(C)CC[C@H](O)C(C)(C)[C@@H]4CC[C@]23C)O1 [PDQ, (20S,24S)-dammar-20,24-epoxy-3β, 12β, 25-triol]",IC50,CYP2D6,52 µM
same,IC50,"hMDR1(P-gp); MDCKII-MDR1, 25 μM 3H-digoxin, 15 min",0.41 µM
same,Transport activity of P-gp (main text: percentage inhibition),hMDR1(P-gp); inhibitor 0.1 μM,57.5±7.1%
same,Transport activity of P-gp (main text: percentage inhibition),hMDR1(P-gp); inhibitor 0.3 μM,57.0±9.2%
same,Transport activity of P-gp (main text: percentage inhibition),hMDR1(P-gp); inhibitor 1 μM,30.8±6.4%
same,Transport activity of P-gp (main text: percentage inhibition),hMDR1(P-gp); inhibitor 3 μM,23.2±7.1%
same,IC50,hOCT2,> 30 µM
